Test results taken from patent publication US5998390A, “Combination of bisphosphonate and tetracycline” (The Research Foundation of State University of New York, priority 1998, dated 1999).

Assays:
osteoclast gelatinase = assay: Inhibition of osteoclast gelatinase ([3H-methyl] gelatin degradation by culture media); format: biochemical, chicken
Method: Post-incubation media from cultured chicken osteoclasts were partially-purified, then incubated with [^3 H-methyl] gelatin for 4 hours at 37° C. in the presence of 1.2 mM APMA to activate any latent Pro-gelatinase. The incubations were carried out in the presence (or absence) of several different concentrations (0.001-1000 μM) of a bisphosphonate, Didronel (Etidronic Acid); where appropriate, CMT-1 was added at a final concentration of 50 μM. After the 4 hour incubation, the reaction was stopped by the addition of 45% Trichloroacetic acid and carrier gelatin, the mixture was centrifuged, and aliquots of the supernatant, containing the radiolabeled gelatin degradation fragments, were counted in a liquid scintillation spectrometer.

[1] = biological target: T1, Recombinant human MT1 -MMP (MMP-14) (Homo sapiens, UniProt P50281); assay: β-casein degradation by MT1-MMP; format: biochemical; settings: single agent, 2 μM (suboptimal)
T1 construct: purchased In Vitro-Tek, Berlin, Germany
Method: Also, suboptimal inhibitory doses of CMT's and bisphosphonate, alone and in combination, were tested on pure human recombinant MT1 -MMP and MMP-9 activities using a β-casein-degradation assay.
Recombinant human ([…]) MT1 -MMP (also called MMP-14) (In Vitro-Tek, Berlin, Germany) was pretreated with buffer (none), 2 μM CMT-3 and 2 μM bisphosphonate clodronate (clodrinate) and combinations of 2 μM CMT-3 and 2 μM clodrinate for 1 h at 37° C. Subsequently, substrate β-casein (52 μM) was added to the incubation mixtures, and incubations continued for 60 min at 37° C.

LPS-injected rats [2] = assay: Tooth mobility in LPS-induced periodontitis rat model; format: in vivo; settings: for effect on tooth mobility / effect on pathologic tooth mobility: Examples 1 and 2; for effect on pathologic tooth mobility: 2 mg; for reduction in tooth mobility: Example 3, day 7, vs untreated LPS-injected rats, CMT-8 1 mg/day oral, clodronate 1 mg/week s.c., single agents not statistically significant, combination p<0.05; for tooth mobility relative to the level in saline-injected control rats: Example 3, single agents at sub-optimal dose
From the text: (§1) The activity of combinations of various tetracyclines and bisphosphonates was investigated in vivo. […] This procedure produces marked inflammation in the periodontal tissues and induces elevated levels of tissue-destructive matrix metalloproteinases (MMPs) and serine proteinases such as elastase in the gingiva leading to severe alveolar bone resorption and bone loss around the affected teeth, all within the 7-day experimental protocol. In brief, adult male rats with this experimentally-induced inflammatory disease were either left untreated, or treated with sub-optimal doses of (1) a CMT by itself; (II) a bisphosphonate by itself, or (III) a combination of (I) and (II). At the end of the experimental protocol, tooth mobility and alveolar bone loss, and levels of various tissue destructive MMP collagenases and gelatinases and serine enzymes in the gingiva, were measured.
(§2) For in vivo Examples, Thirty male Sprague-Dawley rates were distributed into 5 groups as follows:
Group 1: Normal. Saline injected+placebo therapy (CMC)
Group 2: LPS. LPS injected+placebo (CMC)
Group 3: CMT-8. LPS injected+CMT-8 (1 mg/day)
Group 4: Clodronate. LPS injected+Clodronate (1 mg/week)
Group 5: Combo. LPS+CMT-8 (1 mg/day)+Clodronate (1 mg/week)
(§3) The treatments were administered by oral gavage once per day (CMT-8) throughout the entire 7 day period, or by a single subcutaneous injection (clodrinate).
(§4) LPS (lipopolysaccharide)-induced periodontitis rat model: Twenty four hours before treatment, the rats were injected into the upper anterior gingivae and into the palatal papillae between 1st and 2nd upper molars with 10 μL of LPS (1 mg/ml) or saline solution, for a total of 10 μg LPS per site injected. The LPS injections were repeated every other day to complete the three injections.
(§5) On day 7, all rats were anesthetized, blood samples were collected by cardiac puncture and rats were sacrificed. Tooth mobility was checked and the gingival tissue was dissected and stored at -80° C. for subsequent enzyme analysis. The jaws were defleshed for bone loss determination.
(§6) The first experiment was designed to select sub-optimal doses of both CMT-8 (a chemically-modified, non-antibacterial tetracycline) and clodronate (a bisphosphonate) in the endotoxin-induced bone loss model. Groups of rats (n=5-6 rats/group) were anesthetized and injected directly into the gingival tissues with either saline (control group) or with LPS endotoxin every other day over a 7-day time period. Twenty-four hours after the first injection, groups of rats were administered by oral gavage either 0, 0.5mg, 1 mg, or 2mg CMT-8 daily for the next 6 days. At the end of the experiment, the rats were anesthetized, blood was drawn by intracardiac puncture, the rats were euthanized and the gingival tissues dissected for enzyme analysis. In addition, tooth mobility was scored and, after defleshing the jaws, alveolar bone loss around the teeth was scored morphometrically using a computer-assisted system.
(§7) In a third experiment, 30 adult male rats were distributed into the following experimental groups: saline-injected group; groups injected with endotoxin and then administered no drug, CMT-8 alone (1 mg/day), clodronate alone (1 mg/week), or a combination of the same sub-optimal doses of both drugs. The experiment was terminated on day 7. As described above, the gingival tissues were dissected, extracted and the partially-purified extracts analyzed for neutral proteinase (elastase and matrix metalloproteinase) activities, and both tooth mobility and alveolar bone loss were assessed.
In FIG. 1, tooth mobility is based on the following scoring system:
1=slight movement (vestibule-palatal)
2=medium movement (vestibule-palatal)
3=severe movement (vertical mobility in and out of socket)

collagenase = assay: Gingival collagenase activity ([3H-methyl] collagen substrate, SDS-PAGE/fluorography) in extracts from treated LPS-injected rats; format: in vivo, rat; settings: Example 3; total collagenase after 1.2 mM APMA activation; vs untreated LPS-injected rats; CMT-8 1 mg/day, clodronate 1 mg/week
Method: as §4, §5
as §7, with “assessed. […]” for “assessed.”

LPS-injected rats [3] = assay: Alveolar bone loss in LPS-induced periodontitis rat model (morphometric analysis of defleshed jaws); format: in vivo; settings: for effect on pathologic bone loss: 2 mg
From the text: as §1, §2, §3, §4, §5, §6, §7

[4] = 0.5 mg, CMT-8 daily oral gavage, clodronate single subcutaneous injection
[5] = 1 mg (selected sub-optimal dose)
[6] = CMT-8 daily oral gavage, clodronate single subcutaneous injection
[7] = 0.5 mg, CMT-8 daily oral gavage, clodronate single subcutaneous injection, Examples 1 and 2
[8] = 1 mg (selected sub-optimal dose), Examples 1 and 2
[9] = CMT-8 daily oral gavage, clodronate single subcutaneous injection, Examples 1 and 2
[10] = Example 3, day 7, CMT-8 1 mg/day oral, clodronate 1 mg/week s.c.

Compound	inhibition of osteoclast gelatinase activity (osteoclast gelatinase; 50 μM CMT-1, 4 hours at 37° C., 1.2 mM APMA)	inhibition of β-casein degradation by MT1-MMP [1]	effect on tooth mobility (LPS-injected rats [2]; [4])	effect on tooth mobility (LPS-injected rats [2]; [5])	effect on pathologic tooth mobility (LPS-injected rats [2]; [6])	reduction in tooth mobility (LPS-injected rats [2]) [%]	tooth mobility relative to the level in saline-injected control rats (LPS-injected rats [2])	reduction of gingival collagenase activity (collagenase)	effect on alveolar bone loss (LPS-injected rats [3]; [7])	effect on alveolar bone loss (LPS-injected rats [3]; [8])	effect on pathologic bone loss (LPS-injected rats [3]; [9])	effect on alveolar bone loss (LPS-injected rats [3]; [10])	inhibition of osteoclast gelatinase activity (osteoclast gelatinase; Didronel at 0.001, 0.1, 10, and 1000 μM final concentrations)
CC1(O)c2cccc(O)c2C(=O)C2=C(O)C3(O)C(=O)C(C(N)=O)=C(O)CC3CC21 (stereo not drawn) [CMT-1, 4-de(dimethylamino)tetracycline]	about 79%	–	–	–	–	–	–	–	–	–	–	–	–
NC(=O)C1=C(O)C2(O)C(=O)C3=C(O)c4c(O)cccc4CC3CC2CC1=O (stereo not drawn) [CMT-3, 6-demethyl-6-deoxy-4-de(dimethylamino)tetracycline]	–	relative slight inhibition	–	–	–	–	–	–	–	–	–	–	–
CC1c2cccc(O)c2C(O)=C2C(=O)[C@]3(O)C(O)=C(C(N)=O)C(=O)C[C@@H]3[C@@H](O)[C@@H]21 (stereo partly drawn) [CMT-8, 6-deoxy-5α-hydroxy-4-de(dimethylamino)tetracycline]	–	–	no significant effects	either no, or barely detectable beneficial effects	essentially returned the pathologic tooth mobility and bone loss, induced by bacteria endotoxin, to control levels	18	more than twice the level seen in the control rats	22-31%	no significant effects	either no, or barely detectable beneficial effects	essentially returned the pathologic tooth mobility and bone loss, induced by bacteria endotoxin, to control levels	reduced alveolar bone loss only slightly, if at all	–
CC(O)(P(=O)(O)O)P(=O)(O)O [Didronel, Etidronic Acid]	–	–	–	–	–	–	–	–	–	–	–	–	did not show any detectable inhibition
O=P(O)(O)C(Cl)(Cl)P(=O)(O)O [clodronate, dichloromethane diphosphonic acid]	–	relative slight inhibition	no significant effects	either no, or barely detectable beneficial effects	essentially returned the pathologic tooth mobility and bone loss, induced by bacteria endotoxin, to control levels	18	more than twice the level seen in the control rats	22-31%	no significant effects	either no, or barely detectable beneficial effects	essentially returned the pathologic tooth mobility and bone loss, induced by bacteria endotoxin, to control levels	reduced alveolar bone loss only slightly, if at all	–
